# Non-standard residues stand in square brackets, D forms with d. Residues, ends and D or L forms follow the SMILES beside them. *: point of attachment. Lauroyl = CCCCCCCCCCCC(=O)*
# Experiments:
# Assay type in all cases: cell-based
# [1] = tested on: Staphylococcus epidermidis ATCC 12228; experiment: MIC, NCCLS M7-A6 broth microdilution (Table 9, no superscript); conditions: ATCC 12228
# Summary of the method: (§1)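 Broth microdilution in cation-adjusted Mueller Hinton broth, log-phase inoculum giving 5×10^5 to 1×10^6 CFU/milliliter per well. Overnight incubation at 37° C. MIC taken as lowest peptide concentration with no visible turbidity versus a no-peptide control.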
# [2] = tested on: Salmonella dublin (Lane); experiment: as above
# Summary of the method: as §1
# [3] = tested on: Escherichia coli ATCC 25922; experiment: as above; conditions: ATCC 25922
# Summary of the method: as §1
# [4] = tested on: Pseudomonas aeruginosa ATCC 27853; experiment: as above; conditions: ATCC 27853
# Summary of the method: as §1
# [5] = tested on: Staphylococcus aureus ATCC 29213; experiment: MIC, NCCLS M7-A6 broth microdilution, cation-adjusted Mueller Hinton broth (Table 9, no superscript); conditions: ATCC 29213
# Summary of the method: as §1
# [6] = tested on: Candida albicans ATCC 18804; experiment: MIC in yeasts, NCCLS M27-A2 broth microdilution, RPMI 1640 (Table 9, letter e); conditions: ATCC 18804
# Procedure: Briefly, RPMI 1640 supplemented with glutamine and phenol red as a pH indicator was used in the broth microdilution method. A 96-well plate was inoculated so that the final inoculum of yeast for each well contained between 0.5×10^3 and 2.5×10^3 CFU/milliliter. […] Plates were incubated for 24 to 48 hours at 37° C. The lowest concentration of peptide that contained no visible growth was determined as the MIC. MIC values that utilized this method of MIC determination are indicated in Table 9 with a subscript letter “e.” “Peptide Number” corresponds to peptide compositions and corresponding designations in Table 3.
Structure (SMILES),MIC S. epidermidis [1] [µg/mL],MIC S. dublin [2] [µg/mL],MIC E. coli [3] [µg/mL],MIC P. aeruginosa [4] [µg/mL],MIC S. aureus [5] [µg/mL],MIC C. albicans [6] [e ug/mL]
"CCCCCCCCCCCC(=O)N[C@H](Cc1c[nH]c2ccccc12)C(=O)N[C@H](CCCNC(=N)N)C(=O)N[C@H](CC(=O)O)C(=O)N[C@@H](C(=O)N[C@H](C)C(=O)N[C@H](CCCNC(=N)N)C(=O)N[C@H](CC(N)=O)C(N)=O)C(C)C [Peptide 123, Lauryl-wrdvarn-NH2] (Lauroyl-[dW][dR][dD][dV][dA][dR][dN]-NH2)",64,>64,>64,>64,>64,64
"CCCCCCCCCCCC(=O)N[C@H](CCCNC(=N)N)C(=O)N[C@H](CC(=O)O)C(=O)N[C@@H](C(=O)N[C@H](C)C(=O)N[C@H](CCCNC(=N)N)C(=O)N[C@H](CC(N)=O)C(=O)N[C@H](Cc1ccccc1)C(N)=O)C(C)C [Peptide 124, Lauryl-rdvarnf-NH2] (Lauroyl-[dR][dD][dV][dA][dR][dN][dF]-NH2)",>64,>64,>64,>64,>64,64
"CCCCCCCCCCCC(=O)N[C@@H](C(=O)N[C@H](C)C(=O)N[C@H](CCCNC(=N)N)C(=O)N[C@H](CC(N)=O)C(=O)N[C@H](Cc1ccccc1)C(=O)N[C@H](CCSC)C(=O)N[C@H](CCCNC(=N)N)C(N)=O)C(C)C [Peptide 126, Lauryl-varnfmr-NH2] (Lauroyl-[dV][dA][dR][dN][dF][dM][dR]-NH2)",>64,>64,>64,>64,>64,8
"CCCCCCCCCCCC(=O)N[C@H](Cc1c[nH]c2ccccc12)C(=O)N[C@H](CCCNC(=N)N)C(=O)N[C@H](CC(=O)O)C(=O)N[C@@H](C(=O)N[C@H](C)C(=O)N[C@H](CCCNC(=N)N)C(=O)N[C@H](CC(N)=O)C(=O)N[C@H](Cc1ccccc1)C(=O)N[C@H](CCSC)C(=O)N[C@H](CCCNC(=N)N)C(N)=O)C(C)C [Peptide 129, Lauryl-wrdvarnfmr-NH2] (Lauroyl-[dW][dR][dD][dV][dA][dR][dN][dF][dM][dR]-NH2)",32,>64,>64,>64,>64,>64
"CCCCCCCCCCCC(=O)N[C@@H](CCCNC(=N)N)C(=O)N[C@@H](CO)C(=O)N[C@@H](CCCNC(=N)N)C(=O)N[C@@H](Cc1c[nH]c2ccccc12)C(=O)N[C@@H](CCCNC(=N)N)C(=O)N[C@@H](CC(=O)O)C(=O)N[C@H](C(=O)N[C@@H](C)C(=O)N[C@@H](CCCNC(=N)N)C(=O)N[C@@H](CC(N)=O)C(=O)N[C@@H](Cc1ccccc1)C(=O)N[C@@H](CC(C)C)C(=O)N[C@@H](CCCNC(=N)N)C(N)=O)C(C)C [Peptide 135, Lauryl-RSRWRDVARNFLR-NH2] (Lauroyl-RSRWRDVARNFLR-NH2)",1,2,4,4,2,2
"CCCCCCCCCCCC(=O)N[C@@H](CCCNC(=N)N)C(=O)N[C@@H](CO)C(=O)N[C@@H](CCCNC(=N)N)C(=O)N[C@@H](Cc1c[nH]c2ccccc12)C(=O)N[C@@H](CCCNC(=N)N)C(=O)N[C@@H](CC(=O)O)C(=O)N[C@H](C(=O)N[C@@H](CC(C)C)C(=O)N[C@@H](CCCNC(=N)N)C(=O)N[C@@H](CC(N)=O)C(=O)N[C@@H](Cc1ccccc1)C(=O)N[C@@H](CC(C)C)C(=O)N[C@@H](CCCNC(=N)N)C(=O)N[C@@H](CC(C)C)C(=O)N[C@@H](CC(C)C)C(N)=O)C(C)C [Peptide 138, Lauryl-RSRWRDVLRNFLRLL-NH2] (Lauroyl-RSRWRDVLRNFLRLL-NH2)",>64,>64,>64,>64,>64,2
"CCCCCCCCCCCC(=O)N[C@@H](CCCNC(=N)N)C(=O)N[C@@H](CO)C(=O)N[C@@H](CCCNC(=N)N)C(=O)N[C@@H](Cc1c[nH]c2ccccc12)C(=O)N[C@@H](CCCNC(=N)N)C(=O)N[C@@H](CC(=O)O)C(=O)N[C@H](C(=O)N[C@@H](C)C(=O)N[C@@H](CCCNC(=N)N)C(=O)N[C@@H](CC(N)=O)C(=O)N[C@@H](Cc1ccccc1)C(=O)N[C@@H](CCSC)C(=O)N[C@@H](CCCNC(=N)N)C(=O)N[C@@H](Cc1c[nH]c2ccccc12)C(=O)N[C@@H](Cc1c[nH]c2ccccc12)C(N)=O)C(C)C [Peptide 142, Lauryl-RSRWRDVARNFMRWW-NH2] (Lauroyl-RSRWRDVARNFMRWW-NH2)",8,>64,64,>64,64,4
"CCCCCCCCCCCC(=O)N[C@@H](CCCNC(=N)N)C(=O)N[C@@H](CO)C(=O)N[C@@H](CCCNC(=N)N)C(=O)N[C@@H](Cc1c[nH]c2ccccc12)C(=O)N[C@@H](CCCNC(=N)N)C(=O)N[C@@H](CC(=O)O)C(=O)N[C@@H](Cc1c[nH]c2ccccc12)C(=O)N[C@@H](C)C(=O)N[C@@H](CCCNC(=N)N)C(=O)N[C@@H](CC(N)=O)C(=O)N[C@@H](Cc1c[nH]c2ccccc12)C(=O)N[C@@H](CCSC)C(=O)N[C@@H](CCCNC(=N)N)C(=O)N[C@@H](Cc1c[nH]c2ccccc12)C(N)=O [Peptide 144, Lauryl-RSRWRDWARNWMRW-NH2] (Lauroyl-RSRWRDWARNWMRW-NH2)",8,64,>64,>64,32,32
"CCCCCCCCCCCC(=O)N[C@@H](CCCNC(=N)N)C(=O)N[C@@H](CO)C(=O)N[C@@H](CCCNC(=N)N)C(=O)N[C@@H](Cc1c[nH]c2ccccc12)C(=O)N[C@@H](CCCNC(=N)N)C(=O)N[C@@H](CC(=O)O)C(=O)N[C@@H](Cc1c[nH]c2ccccc12)C(=O)N[C@@H](C)C(=O)N[C@@H](CCCNC(=N)N)C(=O)N[C@@H](CC(N)=O)C(=O)N[C@@H](Cc1c[nH]c2ccccc12)C(=O)N[C@@H](CCSC)C(=O)N[C@@H](CCCNC(=N)N)C(=O)N[C@@H](Cc1c[nH]c2ccccc12)C(=O)N[C@@H](Cc1c[nH]c2ccccc12)C(N)=O [Peptide 145, Lauryl-RSRWRDWARNWMRWW-NH2] (Lauroyl-RSRWRDWARNWMRWW-NH2)",16,>64,>64,>64,>64,2
"CCCCCCCCCCCC(=O)N[C@@H](CCCNC(=N)N)C(=O)N[C@@H](CO)C(=O)N[C@@H](CCCNC(=N)N)C(=O)N[C@@H](Cc1c[nH]c2ccccc12)C(=O)N[C@@H](CCCNC(=N)N)C(=O)N[C@@H](CC(=O)O)C(=O)N[C@@H](Cc1c[nH]c2ccccc12)C(=O)N[C@@H](C)C(=O)N[C@@H](CCCNC(=N)N)C(=O)N[C@@H](CC(N)=O)C(=O)N[C@@H](Cc1c[nH]c2ccccc12)C(=O)N[C@@H](CCSC)C(=O)N[C@@H](CCCNC(=N)N)C(=O)N[C@@H](CC(C)C)C(=O)N[C@@H](CC(C)C)C(N)=O [Peptide 146, Lauryl-RSRWRDWARNWMRLL-NH2] (Lauroyl-RSRWRDWARNWMRLL-NH2)",4,64,>64,>64,64,2
"CCCCCCCCCCCC(=O)N[C@@H](CCCNC(=N)N)C(=O)N[C@@H](CO)C(=O)N[C@@H](CCCNC(=N)N)C(=O)N[C@@H](Cc1c[nH]c2ccccc12)C(=O)N[C@@H](CCCNC(=N)N)C(=O)N[C@@H](CC(=O)O)C(=O)N[C@@H](Cc1c[nH]c2ccccc12)C(=O)N[C@@H](Cc1c[nH]c2ccccc12)C(=O)N[C@@H](CCCNC(=N)N)C(=O)N[C@@H](CC(N)=O)C(=O)N[C@@H](Cc1c[nH]c2ccccc12)C(=O)N[C@@H](CCSC)C(=O)N[C@@H](CCCNC(=N)N)C(N)=O [Peptide 147, Lauryl-RSRWRDWWRNWMR-NH2] (Lauroyl-RSRWRDWWRNWMR-NH2)",2,64,64,>64,64,2
"CCCCCCCCCCCC(=O)N[C@@H](CCCNC(=N)N)C(=O)N[C@@H](CO)C(=O)N[C@@H](CCCNC(=N)N)C(=O)N[C@@H](Cc1c[nH]c2ccccc12)C(=O)N[C@@H](CCCNC(=N)N)C(=O)N[C@@H](CC(=O)O)C(=O)N[C@@H](Cc1c[nH]c2ccccc12)C(=O)N[C@@H](Cc1c[nH]c2ccccc12)C(=O)N[C@@H](CCCNC(=N)N)C(=O)N[C@@H](CC(N)=O)C(=O)N[C@@H](Cc1c[nH]c2ccccc12)C(=O)N[C@@H](CCSC)C(=O)N[C@@H](CCCNC(=N)N)C(=O)N[C@@H](CC(C)C)C(=O)N[C@@H](CC(C)C)C(N)=O [Peptide 148, Lauryl-RSRWRDWWRNWMRLL-NH2] (Lauroyl-RSRWRDWWRNWMRLL-NH2)",>64,>64,>64,>64,>64,4

# Source: patent US20050282755A1, “Compositions having antimicrobial activity and uses thereof” (priority 2004, published 2005)
